Where a name gives a salt, the structure may show the parent alone.
Each molecule was assayed against catalytic domain of human PARP14 (Homo sapiens (Human), UniProt Q460N5) (assay: Enzymatic assay for inhibition of PARP14 (DELFIA, auto-modification with biotin-NAD)). Conditions: auto-modification of PARP14 by biotin-NAD, 50 nM PARP14, 3 μM biotin-NAD.
Format: biochemical
How it was run: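 His-TEV-tagged PARP14 catalytic domain (50 nM) preincubated with compound 30 min at 25 °C, then auto-modified with 3 μM biotin-NAD for 3 h at 25 °C in HEPES pH 8 buffer with DTT. IC50 from 4-parameter fit, rucaparib and DMSO as controls.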

Sequence of catalytic domain of human PARP14 (Q460N5 1611-1801): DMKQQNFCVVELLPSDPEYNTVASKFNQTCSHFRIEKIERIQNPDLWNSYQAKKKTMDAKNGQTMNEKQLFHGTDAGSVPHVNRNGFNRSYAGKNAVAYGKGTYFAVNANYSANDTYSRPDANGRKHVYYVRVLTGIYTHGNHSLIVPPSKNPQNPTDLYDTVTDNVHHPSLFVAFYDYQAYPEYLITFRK

**Q.** Which IC50 does the source give for `CO[C@H]1C[C@@H](Nc2cc3nc(CS[C@H]4CC[C@H](O)CC4)[nH]c(=O)c3c(F)c2F)C1` [Example 363] here?
**A.** < 1 µM

**Q.** How did the IC50 turn out when `NC[C@]1(F)CC[C@@H](SCc2nc3cc(NC4CCCC4)cc(F)c3c(=O)[nH]2)CC1` [Example 243, 2-(((trans-4-(Aminomethyl)-4-fluorocyclohexyl)thio)methyl)-7-(cyclopentylamino)-5-fluoroquinazolin-4(3H)-one Trifluoroacetate] was run?
**A.** < 1 µM

**Q.** For `O=c1[nH]c(CS[C@H]2CCN[C@H](C(F)(F)F)C2)nc2cc(NC3CCCC3)cc(F)c12` (relative stereo) [Example 227, 7-(Cyclopentylamino)-5-fluoro-2-(((trans-2-(trifluoromethyl)piperidin-4-yl)thio)methyl)quinazolin-4(3H)-one bis Trifluoroacetate], which IC50 is on record?
**A.** 1 to 10 µM

**Q.** How did the IC50 turn out when `Cc1cccc2c(=O)[nH]c(CS[C@H]3C[C@H](OCc4ccccc4)C3)nc12` [Example 38, 2-((((trans)-3-(Benzyloxy)cyclobutyl)thio)methyl)-8-methylquinazolin-4(3H)-one] was run?
**A.** > 10 µM

**Q.** How did the IC50 turn out when `O=c1[nH]c(CSC2CCOCC2)nc2cc(NC3CCCC3)cnc12` [Example 188, 7-(cyclopentylamino)-2-(((tetrahydro-2H-pyran-4-yl)thio)methyl)pyrido[3,2-d]pyrimidin-4(3H)-one] was run?
**A.** > 10 µM

**Q.** `O=c1[nH]c(CSC2CCOCC2)nc2cc(NC3CCNC3)ccc12` (centres unmarked) [Example 130, 7-(Pyrrolidin-3-ylamino)-2-(((tetrahydro-2H-pyran-4-yl)thio)methyl) quinazolin-4(3H)-one] was tested. Which IC50 did it give?
**A.** 1 to 10 µM

**Q.** For `O=c1[nH]c(CS[C@H]2CC[C@@H](O)CC2)nc2cc(OCC3CCOCC3)cc(F)c12` [Example 365], which IC50 is on record?
**A.** < 1 µM

**Q.** `Cc1cccc2c(=O)[nH]c(CSC3CCCC(N)CC3)nc12` (centres unmarked) [Example 53, 2-(((4-Aminocycloheptyl)thio)methyl)-8-methylquinazolin-4(3H)-one Trifluoroacetate] was tested. Which IC50 did it give?
**A.** < 1 µM

**Q.** How did the IC50 turn out when `COCC(=O)N1CCC(COc2cc(F)c3c(=O)[nH]c(CSC4CCOCC4)nc3c2)CC1` [Example 424] was run?
**A.** < 1 µM

**Q.** Which IC50 does the source give for `CC(F)(F)CN1CCC(COc2cc(F)c3c(=O)[nH]c(CSC4CCOCC4)nc3c2)CC1` [Example 299, 7-((1-(2,2-Difluoropropyl)piperidin-4-yl)methoxy)-5-fluoro-2-(((tetrahydro-2H-pyran-4-yl)thio)methyl)quinazolin-4(3H)-one] here?
**A.** < 1 µM

**Q.** With `Cc1c(F)ccc2c(=O)[nH]c(CSC3CCOCC3)nc12` [Example 33, 7-Fluoro-8-methyl-2-(((tetrahydro-2H-pyran-4-yl)thio)methyl)quinazolin-4(3H)-one] as the molecule, how does the IC50 read?
**A.** < 1 µM

**Q.** `O=c1[nH]c(CS[C@H]2CC[C@H](O)CC2)nc2cc(NC3CCCCC3)cc(F)c12` [Example 249, 7-(Cyclohexylamino)-5-fluoro-2-((((1r,4r)-4-hydroxycyclohexyl)thio)methyl)quinazolin-4(3H)-one] was tested. Which IC50 did it give?
**A.** < 1 µM

**Q.** For `COc1cccc(Nc2ccc3c(=O)[nH]c(CSC4CCOCC4)nc3c2)c1` [Example 83, 7-((3-Methoxyphenyl)amino)-2-(((tetrahydro-2H-pyran-4-yl)thio)methyl)quinazolin-4(3H)-one], which IC50 is on record?
**A.** 1 to 10 µM

**Q.** For `O=c1[nH]c(CS[C@H]2CCNC[C@H]2F)nc2cc(NCC3CCC3)c(F)cc12` (relative stereo) [Example 303, 7-((Cyclobutylmethyl)amino)-6-fluoro-2-(((cis-3-fluoropiperidin-4-yl)thio)methyl)quinazolin-4(3H)-one hydrochloride], which IC50 is on record?
**A.** < 1 µM

**Q.** For `O=c1[nH]c(CSC2CCOCC2)nc2cc(N[C@H]3CCCOC3)ccc12` [Example 187, (S)-7-((tetrahydro-2H-pyran-3-yl)amino)-2-(((tetrahydro-2H-pyran-4-yl)thio)methyl)quinazolin-4(3H)-one], which IC50 is on record?
**A.** < 1 µM

**Q.** For `O=C(Nc1ccccc1)c1ccc2c(=O)[nH]c(CSC3CCOCC3)nc2c1` [Example 78, 4-Oxo-N-phenyl-2-(((tetrahydro-2H-pyran-4-yl)thio)methyl)-3,4-dihydro Quinazoline-7-carboxamide], which IC50 is on record?
**A.** > 10 µM

**Q.** For `O=c1[nH]c(CS[C@H]2CC[C@H](CO)CC2)nc2cc(Nc3ccccc3)ccc12` [Example 104, 2-(((trans-4-(Hydroxymethyl)cyclohexyl)thio)methyl)-7-(phenylamino) quinazolin-4(3H)-one], which IC50 is on record?
**A.** 1 to 10 µM

**Q.** `O=c1[nH]c(CSC2CCOCC2)nc2cc(OCc3ccccc3)ccc12` [Example 96, 7-(Benzyloxy)-2-(((tetrahydro-2H-pyran-4-yl)thio)methyl)quinazolin-4(3H)-one] was tested. Which IC50 did it give?
**A.** 1 to 10 µM

**Q.** `O=c1[nH]c(CS[C@@H]2CCNCC2F)nc2cc(OCC3CC3)cc(F)c12` (stereo in doubt) [Example 295, 7-(Cyclopropylmethoxy)-5-fluoro-2-(((cis-3-fluoropiperidin-4-yl)thio)methyl)quinazolin-4(3H)-one hydrochloride] was tested. Which IC50 did it give?
**A.** < 1 µM

**Q.** Which IC50 does the source give for `Cc1cccc2c(=O)[nH]c(CSC3CCN(C(=O)CCN(C)C)CC3)nc12` [Example 168, 2-(((1-(3-(Dimethylamino)propanoyl)piperidin-4-yl)thio)methyl)-8-methyl quinazolin-4(3H)-one] here?
**A.** 1 to 10 µM

**Q.** How did the IC50 turn out when `COC(C)(C)CNc1cc2nc(CSC3CCOCC3)[nH]c(=O)c2c(F)c1F` [Example 407] was run?
**A.** 1 to 10 µM

**Q.** `NC(=O)C[C@H]1CC[C@H](SCc2nc3cc(NC4CCCC4)cc(F)c3c(=O)[nH]2)CC1` [Example 286, 2-(Trans-4-(((7-(cyclopentylamino)-5-fluoro-4-oxo-3,4-dihydroquinazolin-2-yl)methyl)thio)cyclohexyl)acetamide] was tested. Which IC50 did it give?
**A.** < 1 µM

**Q.** With `O=c1[nH]c(CSC2CCOCC2)nc2cc(NCc3ccccc3)ccc12` [Example 119, 7-(Benzylamino)-2-(((tetrahydro-2H-pyran-4-yl)thio)methyl)quinazolin-4(3H)-one] as the molecule, how does the IC50 read?
**A.** < 1 µM

**Q.** For `Cc1cccc2c(=O)[nH]c(CSC3CCN(C(=O)[C@@H](N)CCCCN)CC3)nc12` [Example 171, 2-(((1-(L-Lysyl)piperidin-4-yl)thio)methyl)-8-methylquinazolin-4(3H)-one Dihydrochloride], which IC50 is on record?
**A.** < 1 µM

**Q.** For `CO[C@H]1CC[C@@H](SCc2nc3cc(OCC4CCOCC4)cc(F)c3c(=O)[nH]2)CC1` [Example 357], which IC50 is on record?
**A.** < 1 µM

**Q.** With `O=c1[nH]c(CSC2CCOCC2)nc2cccnc12` [Example 36, 2-(((Tetrahydro-2H-pyran-4-yl)thio)methyl)pyrido[3,2-d]pyrimidin-4(3H)-one] as the molecule, how does the IC50 read?
**A.** > 10 µM

**Q.** `COc1ccc(CN2CCC(SCc3nc4c(C)cccc4c(=O)[nH]3)CC2)nc1` [Example 157, 2-(((1-((5-Methoxypyridin-2-yl)methyl)piperidin-4-yl)thio)methyl)-8-methylquinazolin-4(3H)-one bistrifluoroacetate] was tested. Which IC50 did it give?
**A.** < 1 µM

**Q.** `Cc1cccc2c(=O)[nH]c(CS[C@H]3CC[C@@H](CN)CC3)nc12` [Example 65, 2-(((cis-4-(Aminomethyl)cyclohexyl)thio)methyl)-8-methylquinazolin-4(3H)-one Trifluoroacetate] was tested. Which IC50 did it give?
**A.** 1 to 10 µM

**Q.** `O=c1[nH]c(CS[C@H]2CCNC[C@H]2F)nc2cc(NC3CCCC3)cc(F)c12` (relative stereo) [Example 212, 7-(Cyclopentylamino)-5-fluoro-2-((((cis)-3-fluoropiperidin-4-yl)thio)methyl)quinazolin-4(3H)-one Hydrochloride] was tested. Which IC50 did it give?
**A.** < 1 µM

**Q.** Which IC50 does the source give for `O=c1[nH]c(CSC2CCOCC2)nc2cc(NCc3ccccn3)ccc12` [Example 118, 7-((Pyridin-2-ylmethyl)amino)-2-(((tetrahydro-2H-pyran-4-yl)thio)methyl)quinazolin-4(3H)-one] here?
**A.** 1 to 10 µM

**Q.** For `O=c1[nH]c(CSC2CCOCC2)nc2cc(OCC3CCOC3)cc(Br)c12` (centres unmarked) [Example 376], which IC50 is on record?
**A.** < 1 µM

**Q.** For `O=c1[nH]c(CS[C@H]2CC[C@H](CO)CC2)nc2cc(NC3CCCC3)ccc12` [Example 180, 7-(cyclopentylamino)-2-((((1R,4R)-4-(hydroxymethyl)cyclohexyl)thio)methyl)quinazolin-4(3H)-one], which IC50 is on record?
**A.** < 1 µM

**Q.** For `Cc1cccc2c(=O)[nH]c(CSC3CCN(CCc4ccccc4)CC3)nc12` [Example 147, 8-Methyl-2-(((1-phenethylpiperidin-4-yl)thio)methyl)quinazolin-4(3H)-one trifluoroacetate], which IC50 is on record?
**A.** < 1 µM

**Q.** For `O=c1[nH]c(CS[C@H]2CC[C@H](O)CC2)nc2cc(NCC3CC3)cc(F)c12` [Example 271, 7-((Cyclopropylmethyl)amino)-5-fluoro-2-(((trans-4-hydroxycyclohexyl)thio)methyl)quinazolin-4(3H)-one], which IC50 is on record?
**A.** < 1 µM

**Q.** With `O=c1[nH]c(CSC2CCNCC2)nc2cc(NC3CCCCC3)cc(F)c12` [Example 248, 7-(Cyclohexylamino)-5-fluoro-2-((piperidin-4-ylthio)methyl)quinazolin-4(3H)-one] as the molecule, how does the IC50 read?
**A.** < 1 µM

**Q.** For `Cc1c(Nc2ccccc2)ccc2c(=O)[nH]c(CSC3CCOCC3)nc12` [Example 95, 8-Methyl-7-(phenylamino)-2-(((tetrahydro-2H-pyran-4-yl)thio)methyl) quinazolin-4(3H)-one], which IC50 is on record?
**A.** 1 to 10 µM

**Q.** How did the IC50 turn out when `O=c1[nH]c(CS[C@H]2CC[C@H](O)CC2)nc2cc(F)ccc12` [Example 46, 7-Fluoro-2-((((trans)-4-hydroxycyclohexyl)thio)methyl)quinazolin-4(3H)-one] was run?
**A.** 1 to 10 µM

**Q.** Which IC50 does the source give for `O=c1[nH]c(CSC2CCS(=O)(=O)CC2)nc2cc(NCC3CCC3)c(F)c(F)c12` [Example 339] here?
**A.** < 1 µM

**Q.** With `Nc1cc2nc(CSC3CCOCC3)[nH]c(=O)c2c(F)c1F` [Example 403] as the molecule, how does the IC50 read?
**A.** > 10 µM

**Q.** Which IC50 does the source give for `O=c1[nH]c(CSC2CCOCC2)nc2cc(OCC3CCOCC3)cc(F)c12` [Example 236, 5-Fluoro-7-((tetrahydro-2H-pyran-4-yl)methoxy)-2-(((tetrahydro-2H-pyran-4-yl)thio)methyl)quinazolin-4(3H)-one] here?
**A.** < 1 µM

**Q.** How did the IC50 turn out when `Cc1cccc2c(=O)[nH]c(CSC3CC(CN)C3)nc12` (centres unmarked) [Example 182, 2-(((3-(aminomethyl)cyclobutyl)thio)methyl)-8-methylquinazolin-4(3H)-one] was run?
**A.** 1 to 10 µM

Source: US10562891B2, “Quinazolinones as PARP14 inhibitors” (Ribon Therapeutics Inc., priority 2017, dated 2020)
